Results on one molecule are retold here after patent US20030203969A1, “Pharmaceutically active aromatic guanylhydrazones” (priority 2000, published 2003).

For series [1], the system named is T-cell-tropic HIV-1NL4/3 strain. The series is described as follows: Inhibition of T-cell-tropic HIV-1 NL4/3 replication in de novo infected Jurkat cells (p24 antigen). The class given is cell-based. As to conditions: d10. On the procedure: HIV replication was measured either by p24 HIV Antigen Capture Assay Kit (ELISA; HIVAG-1 Monoclonal kit BIA011; Abbott) following the manufacturer's recommendation, or by using the Quantiplex HIV-1 RNA 3.0 Assay (bDNA) system (Chiron Diagnostics). The latter assay is a signal amplification nucleic acid probe assay (employing a sandwich nucleic acid hybridization procedure) for direct quantitation of HIV RNA in human plasma. There, in brief, HIV-1 is first concentrated from plasma by centrifugation. After release of genomic HIV-1 RNA from the virions, the RNA is captured to a microwell by a set of specific, synthetic oligonucleotide capture probes. A set of target probes hybridize to both the viral RNA and the pre-amplifier probes. The capture probes, comprised of 17 individual capture extenders, and the target probes, comprised of 81 individual target extenders, bind to different regions of the pol gene of the viral RNA. The amplifier probe hybridizes to the pre-amplifier forming a branched DNA (bDNA) complex. Then, multiple copies of an alkaline phosphatase labeled probe are hybridized to this immobilized bDNA complex. Detection is achieved by incubating the entire complex with a chemoluminescent substrate. Light emission is directly proportional to the amount of HIV-1 RNA present in each sample, and results are recorded as relative light units by an appropriate analyzer.
Jurkat cells (species: human T-cell leukemia; special characteristics: cells are permissive for growth of T-cell tropic HIV strains; source:ATCC Cat.No. TIB 152) or PM1 cells (species: clonal derivative of human HUT 78 cells; special characteristics: cells are permissive for growth of macrophage-tropic and T-cell tropic HIV strains; source: Dr. Marvin Reitz, courtesy of the NIH AIDS Research and Reference Reagent Program Cat.No. 3038) were stimulated with Phytohemagglutinin (PHA-P, Product No. L9132 from Sigma) in a concentration of 2 μg/ml (1.5×10^6 cells/ml) and Hexadimethrine Bromide (Polybrene, Product No. H9268 from Sigma) in a concentration of 2 μg/ml (1.5×10^6 cells/ml) in RPMI 1640 medium containing 10% fetal calf serum (FCS, Pansystems GmbH) and antibiotics for 3 days.
For HIV-1 infection, 5×10^7 cells were resuspended in 500 μl culture medium without test drugs and incubated in a 50 ml blue-cap-tube at 37° C. for 5 hrs with HIV-1 high titer viral stocks. Jurkat cells were infected with the T-cell tropic strain HIV-1 NL4-3, PM1 cells with the macrophage tropic strain HIV-1 Ba-L (both from the NIH AIDS Research and Reference Reagent Program). After infection, cells were washed twice with PBS without Ca^2+ and Mg^2+ to avoid false positive p24 antigen determination. Cells were resuspended, and identical aliquots (1×10^6/ml) of infected cells were further cultured in 10 ml medium with test drugs at various concentrations, or in medium with DMSO as control for calculation of the inhibition of virus replication (in %].
Culture medium was changed and cells were split at days 3 and 7 of the experiments. Viability of the cells (Trypan-blue staining), cell counts and p24 antigen levels were determined at days 3, 7 and 10 of the experiments. No significant differences in cell viability were observed (˜85-90% living cells).
At day 10 of infection, the HIV strains replicated vigorously in untreated cultures. Numbers describe percent inhibition of HIV replication as compared to control experiments.

A further series deals with HepG2-2.2.15 cells. The series can be described thus: Cell viability of HepG2-2.2.15 cells (dye uptake). As to conditions: inhibits cell growth by 50%, read-out: TC50 (the source's name). The class given is cell-based, human. How it is done:
(§1) Human HepG2-2.2.15 cells (ATCC Cat. No. CRL-11997), chronically infected with HBV, are plated in 96-well microtiter plates in DMEM medium supplemented with fetal bovine serum. After incubation at 37° C. in a humidified, 5% CO2 environment for 16-24 hours, the monolayer of HepG2-2.2.15 cells is washed and the medium is replaced with complete medium containing various concentrations of test compound. Every three days during the experiments, the culture medium is replaced with fresh medium containing the appropriately diluted test compound. Six days following the initial administration of the test compound, the cell culture supernatant is collected and clarified by centrifugation. The cell viability is evaluated by a dye uptake procedure (Promega's Cell Titer Aqueous One Solution). Virion-associated HBV DNA present in the tissue culture supernatant is amplified employing PCR technology using primer pairs derived from the HBV strain ayw. Subsequently, the PCR-amplified HBV DNA is detected in real-time by monitoring increases in fluorescence signals that result from exonucleolytic degradation of a quenched fluorescent probe molecule following hybridization of the probe to the amplified HBV DNA (TaqMan; Perkin-Elmer).

For series [2], the system named is Lamivudine-resistant, mutant HBV. The series can be described thus: Transfected Lamivudine-resistant mutant HBV production in HepG2 cells. Type of series: cell-based, Hepatitis B virus. On the procedure: as §1
The same type of experiments was additionally performed with a mutant, Lamivudine-resistant HBV strain, which was transfected into HepG2 cells. […]

Series [3] deals with MRC-5 (human embryonic lung fibroblast) cells. The series is described as follows: Drug toxicity in MRC-5 cells (CellTiter 96). The class given is cell-based. As to conditions: six day incubation, read-out: TC50 (the source's name). On the procedure: Drug toxicity is determined in parallel by seeding MRC-5 cells in 96 well plates and adding drugs to triplicate wells at two dilutions. After a six day incubation period, cell viability is determined using CellTiter 96 Aqueous One Solution (Promega).

The next series concerns E. Coli XL-1 blue strain. The series is described as follows: Growth assay for E. coli (optical density at 610 nm). The class given is cell-based. As to conditions: LB medium, 37° C., one day; read-out: IC50 (μM) E. coli proliferation. On the procedure:
We used the E. Coli XL-1 blue strain (Stratagene) for the investigation of antibacterial activity. During this experiments LB medium was used for E. coil growth. LB was prepared as follows: 1% trypton (weight/volume), 0.5% Yeast extract (weight/volume), and 1.5% NaCl (weight/volume) were dissolved in water and autoclaved. The media contained the inhibitor at 100 μM, 10 μM, or 1 μM concentrations, respectively.
The assay was performed as follows: bacteria were seeded to 96-well plates containing the respective inhibitors. The bacteria-containing plates were incubated at 37° C. for one day. After incubation time, E. coli growth was assayed by the measurement of the optical density at 610 nm wavelength.

A further series has as its system HIV. The series can be described thus: Relevant HIV cellular systems (summary statements). Type of series: cell-based. The text has this: Thus another aspect of the present invention is directed to the use of the compounds of the general formula (I) and/or pharmaceutically active salts as inhibitors of elF-5A activation and HIV replication.
The present invention therefore provides a genus of guanylhydrazone-substituted compounds that are useful as inhibitors of HIV-1, HIV-2, HTLV-I as well as for treating diseases associated with those viruses.

SMILES strings stand for the structures.

In the case of `CC(=NNC(=N)N)c1cc(NC(=O)CCCCCCCCC(=O)Nc2cc(C(C)=NNC(=N)N)cc(C(C)=NNC(=N)N)c2)cc(C(C)=NNC(=N)N)c1` [Compound 4, N,N′-bis (3,5-diacetylphenyl) decane diamide tetrakis (amidinohydrazone)], the “percent inhibition of HIV replication as compared to control” value in series [1] (HIV-1 NL4/3, 0.5 μM) is listed as 31%; in series [1] (HIV-1 NL4/3, 1.0 μM) it was 85%. For the same molecule, the CC50 in the series on HepG2-2.2.15 cells is above 20 µM; in series [3] it was 13.6 µM. The Comments result in series [2] (Lamivudine-resistant mutant HBV) is given as “Active”. The IC50 was found to be 2.78 µM in series [2] (Lamivudine-resistant mutant HBV transfected into HepG2 cells, read-out: IC50 (μM) Virion-DNA) and 1 µM with E. Coli XL-1 blue strain. Moreover, the “cellular toxicities at effective antiviral dosages” value in the series on HIV (HIV cellular systems) was “without apparent cellular toxicities”. For the same molecule, in the series on HIV (T-cell-tropic, macrophage-tropic, primary patient isolates, multidrug-resistant HIV strains), the “inhibition of HIV replication” value is reported as “submicromolar range”.
